Measured values: patent publication US20220054494A1, “METHODS FOR TREATING BLADDER AND URETHRA DYSFUNCTION AND DISEASE” (University of Pittsburgh - Of the Commonwealth System of …, priority 2019, published 2022)
“Also recorded” adds a separate entry of the source.

Legend:
Type in all cases: in vivo, rat
CYP-treated rats [1] = assay: Images of intact bladders in CYP cystitis model (inflammation and bleeding); details: CYP (75 mg/kg i.p.) female Sprague Dawley rats; oral 8-AG 5 mg/kg/day starting one week prior to CYP
Experimental: (§1) Animals: Female Sprague Dawley rats were employed in this example (Charles River; Wilmington, Mass.). Three groups of animals were included. Group 1 received an i.p. injection of saline and was used as a control; groups 2 and 3 received an i.p. injection of cyclophosphamide (CYP, SIGMA-ALDRICH®, St Louis, Mo., day 0, 3, 6, sacrifice day 8, 75 mg/kg, i.p.) with group 3 treated with oral 8-AG (5 mg/kg/day; starting one week prior to CYP). CYP induced bladder inflammation and is a well-established pre-clinical model for BPS/IC.

LC3 = assay: Western immunoblotting, LC3 (lipidated form); details: aged rats; oral 8-AG 5 mg/kg/day, 6 weeks
Experimental: (§2) Western immunoblotting: Following the testing paradigms, rats were deeply anesthetized, bladders as well as the proximal urethra were removed, and one half of each preparation was homogenized using Lysing Matrix D in a FastPrep 24 instrument (MP Biomedicals, Solon, Ohio) in HBSS [5 mM KCl, 0.3 mM KH2PO4, 138 mM NaCl, 4 mM NaHO3, 0.3 mM Na2HCO3, 0.3 mM Na2HPO4, 5.6 mM glucose, and 10 mM Hepes, pH 7.4 containing a complete protease inhibitor cocktail (1 tablet/10 ml, ROCHE®, Indianapolis, Ind.) and a phosphatase inhibitor cocktail (SIGMA®, 1:100)]. After centrifugation (13000 rpm; 15 min at 4° C.), the membrane protein fraction was prepared by suspending the membrane pellets in lysis buffer containing 0.3 M NaCl, 50 mM Tris-HCl (pH 7.6), and 0.5% Triton X-100 and the same concentration of protease inhibitors as above. The suspensions were incubated on ice and centrifuged (13000 rpm; 15 min at 4° C.). The protein concentrations of the combined supernatants were determined using the PIERCE® BCA protein assay (THERMO SCIENTIFIC®, Rockford, Ill.). […] As a loading control, total protein per sample was determined using Bio-Rad Stain Free SDS-PAGE gel technology. UV-activated protein fluorescence was imaged on a CHEMIDOC® MP (BIO-RAD®). […] The volume (intensity) of each protein species was determined and normalized to total protein using Image Lab software (BIO-RAD®).

α-SMA = assay: Western immunoblotting, α-SMA; details: aged rats; oral 8-AG 5 mg/kg/day, 6 weeks
Experimental: as §2, with “software (BIO-RAD®). […]” for “software (BIO-RAD®).”

CYP-treated rats [2] = assay: Laser Doppler bladder blood flow in CYP cystitis model; details: CYP (75 mg/kg i.p.) female Sprague Dawley rats; oral 8-AG 5 mg/kg/day starting one week prior to CYP
Experimental: as §1
Blood Flow Changes: Real-time bladder blood perfusion (1 mm^3 tissue) was accomplished using a BLF22D laser Doppler flowmeter (Transonic Systems, Inc) with a surface probe (TypeS-APLPHS) applied to the serosal surface of the bladder (apex and neck) wall using Doppler light shift from moving RBCs to analyze flow by the Bonner algorithm. This method gives robust, non-invasive microvascular flow signals in the bladder wall of anesthetized rats.

bladder blood flow = assay: Laser Doppler flowmeter bladder blood flow, aged rats; details: oral 8-AG 5 mg/kg/day, 6 weeks, compared with young rats
Description: Vascular Changes: Bladders that had been perfused transcardially with PBS buffer containing 20 nm yellow-green fluorescent beads (THERMO FISHER®, F8787) to highlight the vasculature were fixed then cleared by removing lipids and dissolving light-absorbing chromophores within the tissue. Volumetric data were acquired using a Caliber ID RS-G4 ribbon scanning confocal microscope (NIKON® Inc, Tokyo, Japan), which can acquire large-area images (uses a high nA (1.0) long working distance (8 mm) with low magnification (20×)). This affords the advantage of interrogating whole tissues in a three-dimensional environment without the need to section. Real-time blood perfusion (1 mm3 tissue) was accomplished using a BLF22D laser Doppler flowmeter (Transonic Systems, Inc) with a surface probe (TypeS-APLPHS) applied to the serosal surface of the bladder (apex and neck) wall using Doppler light shift from moving RBCs to analyze flow by the Bonner algorithm. This method gives robust, non-invasive microvascular flow signals in the bladder wall of anesthetized rats.

Nc1nc2[nH]c(N)nc2c(=O)[nH]1 [8-AG, 8-Aminoguanine] was tested, and the “bladder inflammation and bleeding (images of intact bladders)” value (CYP-treated rats [1]) was “nearly abolished”, the “LC3 (lipidated form) expression in detrusor” value (LC3) was “partially restores expression toward younger state; also recorded: trend toward reversal” and the “α-SMA expression in detrusor” value (α-SMA) was “increasing expression toward younger state; also recorded: normalized; also recorded: restored these biomarkers to that of a younger state”. The “α-SMA expression in urethra” value (α-SMA) was “increasing expression toward younger state; also recorded: normalized to a younger state”, the “bladder blood flow (CYP-induced hyperemia)” value (CYP-treated rats [2]) was “abolished; also recorded: reversed to a control state” and the “bladder blood flow (Doppler flowmeter)” value (bladder blood flow) was “no significant difference; also recorded: reversed to a younger state”.
